According to patent publication US20070116822A1, “HIGH-POTENCY SWEETENER COMPOSITION WITH SAPONIN AND COMPOSITIONS SWEETENED THEREWITH” (THE COCA-COLA COMPANY, priority 2005, published 2007):

Legend:
[1] = Sensory evaluation of sweetness linger by a panel of experts; format: in vivo; parameters: key: 0=no sweetness linger; 1=very slight sweetness linger; 2=slight sweetness linger; 3=moderate sweetness linger; 4=moderately high sweetness linger; 5=high sweetness linger; conditions: for Sweetness linger rating: scale 0-5; for Sweetness Linger rating (defined scale anchors): rating defined for the protocol, REBA control sample 500 ppm
Procedure: As used herein, the phrases “sugar-like characteristic,” “sugar-like taste,” “sugar-like sweet,” “sugary,” and “sugar-like” are synonymous. […] These characteristics are dimensions in which the taste of sucrose is different from the tastes of natural and synthetic high-potency sweeteners. Whether or not a characteristic is more sugar-like is determined by expert sensory panel assessments of sugar and compositions comprising at least one natural and/or synthetic high-potency sweetener, both with and without a sweet taste improving composition. Such assessments quantify similarities of the characteristics of compositions comprising at least one natural and/or synthetic high-potency sweetener, both with and without a sweet taste improving composition, with those comprising sugar. Suitable procedures for determining whether a composition has a more sugar-like taste are well known in the art.
In a particular embodiment, a panel of assessors is used to measure the reduction of sweetness linger. Briefly described, a panel of assessors (generally 8 to 12 individuals) is trained to evaluate sweetness perception and measure sweetness at several time points from when the sample is initially taken into the mouth until 3 minutes after it has been expectorated. […] A decrease in score for a time point measured after the sample has cleared the mouth indicates there has been a reduction in sweetness perception.
The panel of assessors may be trained using procedures well known to those of ordinary skill in the art. In a particular embodiment, the panel of assessors may be trained using the Spectrum™ Descriptive Analysis Method (Meilgaard et al, Sensory Evaluation Techniques, 3rd edition, Chapter 11). Desirably, the focus of training should be the recognition of and the measure of the basic tastes; specifically, sweet. In order to ensure accuracy and reproducibility of results, each assessor should repeat the measure of the reduction of sweetness linger about three to about five times per sample, taking at least a five minute break between each repetition and/or sample and rinsing well with water to clear the mouth.
Generally, the method of measuring sweetness comprises taking a 10 mL sample into the mouth, holding the sample in the mouth for 5 seconds and gently swirling the sample in the mouth, rating the sweetness intensity perceived at 5 seconds, expectorating the sample (without swallowing following expectorating the sample), rinsing with one mouthful of water (e.g., vigorously moving water in mouth as if with mouth wash) and expectorating the rinse water, rating the sweetness intensity perceived immediately upon expectorating the rinse water, waiting 45 seconds and, while wating those 45 seconds, identifying the time of maximum perceived sweetness intensity and rating the sweetness intensity at that time (moving the mouth normally and swallowing as needed), rating the sweetness intensity after another […], rating the sweetness intensity after another 60 seconds (cumulative 120 seconds after rinse), and rating the sweetness intensity after still another 60 seconds (cumulative 180 seconds after rinse). Between samples take a 5 minute break, rinsing well with water to clear the mouth.
Sensory evaluation of the samples prepared in Example Set G was carried out under the following protocol, similar to that described hereinabove. In this test protocol, none of the samples were swallowed. All samples were expectorated and the mouth was rinsed with water after the tasting. Immediately upon sensing maximal sweetness, the sample was expectorated, the mouth was rinsed with water and the rate of sweetness decay (“Sweetness Linger”) was measured, where attention was focused on the sweetness 3-4 min after the water rinse. After sample tasting was complete, a salty oyster cracker was chewed followed by a water rinse, and at least 5 minutes followed before tasting the next sample. […]

[2] = format: physicochemical
Procedure: A solution of rebaudioside A (>97% pure by HPLC ) was prepared in double distilled water (12.5 gm in 50 mL, 25% concentration) by stirring the mixture at 40° C. for 5 minutes. An amorphous form of rebaudioside A was formed by immediately using the clear solution for spray drying with the Lab-Plant spray drier SD-04 instrument (Lab-Plant Ltd., West Yorkshire, U.K.). The solution was fed through the feed pump into the nozzle atomizer which atomized it into a spray of droplets with the help of a constant flow of nitrogen/air. […] This dry powder (11-12 g, H2O 6.74%) was discharged continuously from the drying chamber and was collected in a bottle.

[3] = Example Set G, citric acid/potassium citrate composition equivalent to diet lemon-lime beverage, sweetness 3-4 min after water rinse
[4] = Example Set H, carbon-treated water, phosphoric acid (75%) to pH 2.4-2.5, protocol of Example Set G

Molecule | Sweetness linger rating [1, 3] | Sweetness linger rating [1, 4] | Sweetness Linger rating (defined scale anchors) [1] | Solubility in water at room temperature [2] [%]
OC[C@H]1O[C@@](CO)(O[C@H]2O[C@H](CO)[C@@H](O)[C@H](O)[C@H]2O)[C@@H](O)[C@@H]1O [sugar, sucrose] | 0 | 0 | 0 | –
rebaudioside A [Form 4] | – | – | – | > 35.0
rebaudioside A | 5 | 5 | 5 | –
